Where two headings read alike, the source gives them in different places.

For one test, the target named is KRAS-G12D (Homo sapiens, UniProt P01116, G12D). The test can be described thus: SOS-catalyzed nucleotide exchange assay (Procedure A, TR-FRET), KRAS-G12D. The format is biochemical. The conditions noted are these: nucleotide exchange, read-out: KRAS G12D GNE IC50. From the text:
(§1) Procedure for SOS-Catalyzed Nucleotide Exchange Assay for KRAS-WT, G12C/D/V, G13D, HRAS, and NRAS (Procedure A)
(§2) Recombinant KRAS-G12C protein used in this assay has an additional triple mutation (C51S/C80L/C118S). Whereas KRAS-WT, G12D/V, G13D, HRAS and NRAS are in context of their WT protein sequence background. Specifically, the SOS-catalyzed nucleotide exchange assay utilizes a preformed TR-FRET complex containing a specific biotinylated RAS protein (KRAS-WT, G12C/V/D, G13D, HRAS, NRAS; described above) with Bodipy-GDP, and Terbium-streptavidin. Compounds are preincubated with this complex for 60 minutes. Subsequently, recombinant human SOS protein and unlabeled GTP are added to initiate the exchange reaction. Small molecule inhibitors stabilize the Bodipy-GDP complex whereas the untreated protein rapidly exchanges Bodipy-GDP for unlabeled GTP resulting in reduced TR-FRET signal.
(§3) To assemble the preformed TR-FRET complexes, each biotinylated RAS protein is diluted to 2 μM in an EDTA Buffer (20 mM HEPES pH 7.5, 50 mM sodium chloride, 10 mM EDTA, and 0.01% Tween) and incubated at room temperature for one hour. This mixture is then further diluted to 90 nM in an Assay Buffer (20 mM HEPES pH 7.5, 150 mM sodium chloride, 10 mM magnesium chloride, and 0.005% Tween) containing 15 nM of Terbium-Streptavidin (Invitrogen, catalog #PV3577) and 900 nM of Bodipy-GDP (Invitrogen, catalog #G22360) and incubated at room temperature for six hours. It should be noted that this preformed TR-FRET complex for each of the RAS protein were made ahead of time, aliquoted and stored at −80° C. until the day of the experiment.
(§4) Each test compound (10 mM stock in DMSO) is diluted in DMSO to make a final-10-point, 3-fold dilution and is acoustically dispensed into a 384-well assay plate (Corning, catalog #3820) using an Echo 550 (Labcyte). Each well of the assay plate receives 3 μL of a specific 3×RAS preformed TR-FRET complex and 3 μL of Assay Buffer and is incubated at room temperature for 60 minutes (preincubation time). Each well then receives 3 μL of 3×recombinant human SOS protein and GTP (Sigma, G8877) in Assay Buffer and is incubated at room temperature for 30 minutes (G13D), 60 minutes (KRAS WT/G12C/D, H/NRAS) or 90 minutes for G12V. The final reaction in each well of 9 μL consists of 3 mM GTP, specific Ras and SOS proteins in the following concentrations: KRAS-G12C/SOS=3 nM/40 nM, KRAS-WT and G12D/SOS=1 nM/40 nM, KRAS-G12V/SOS=1.25 nM/160 nM. KRAS-G13D/SOS=1.25 nM/0 nM, HRAS and NRAS=1.25 nM/40 nM.
(§5) The time-resolved fluorescence resonance energy transfer (TR-FRET) signal is measured on an Envision (PerkinElmer) plate reader: Excitation filter=340 nm; emission 1=495 nm; emission2=520 nm; dichroic mirror=D400/D505; delay time=[…]. The signal of each well is determined as the ratio of the emission at 520 nm to that at 495 nm. Percent effect of each well is determined after normalization to control wells containing DMSO (no effect) or a saturating concentration of inhibitor (max effect). The apparent effect as a function of compound concentration is fit to a four-parameter logistic equation.
A general note: TR-FRET usually uses a lanthanide donor and a delayed reading to cut background.

The next test has as its target KRAS-G12V (Homo sapiens, UniProt P01116, G12V). The test can be described thus: SOS-catalyzed nucleotide exchange assay (Procedure A, TR-FRET), KRAS-G12V. The conditions noted are these: nucleotide exchange, read-out: KRAS G12V GNE IC50. It is filed as biochemical.
Excerpt: as §1, §2, §3, §4, §5

The subject of a further test is AsPC-1 cells. The test can be described thus: Cellular phospho-ERK assay, AsPC-1 cells (homozygous KRAS-G12D). It is filed as cell-based. The conditions noted are these: Homo sapiens, ASPC1, 2 h, read-out: AsPC1 pERK IC50. As for the experimental part:
Procedure for Cellular Phospho-ERK Assay in KRAS Wild Type and Mutant (G12D, G12V) Cell Lines
MKN-1 cells (JCRB JCRB0252) containing amplified wild-type KRAS, were cultured in growth medium that contains RPMI 1640-GlutaMAX™-I (ThermoFisher Scientific 61870) containing 10% heat inactivated fetal bovine serum (ThermoFisher Scientific 10091148), 1 mM sodium pyruvate and 10 mM HEPES. PANC08.13 cells (ATCC® CRL-2551™), containing homozygous KRAS-G12D activating mutation, were cultured in growth medium made of RPMI1640-GlutaMAX™-I (ThermoFisher Scientific 61870) containing 15% heat inactivated fetal bovine serum (ThermoFisher Scientific 10091148)). AsPC-1 cells (ATCC® CRL-1682™), containing homozygous KRAS-G12D activating mutation, were cultured in T150 flask in growth medium (RPMI medium 1640-GlutaMAX™-I (ThermoFisher Scientific 61870) containing 10% fetal bovine serum (ThermoFisher Scientific 10091148)). SW620 cells (ATCC® […]), containing homozygous KRAS-G12V activating mutation, were cultured in growth medium that contains RPMI 1640-GlutaMAX™-I (ThermoFisher Scientific 61870) containing 10% heat inactivated fetal bovine serum (ThermoFisher Scientific 10091148).
Cells for the assay were harvested in growth medium after TrypLE (ThermoFisher scientific 12604021) digestion and were seeded in a 384-well collagen coated cell culture plate (Corning 356702) at a density of 10,000-15,000 cells/20 μL/well, and incubated at 37° C., 5% CO2 overnight. The compound (with 10 mM stock concentration) dose-response titrations were prepared [30 μM final ERK detection assay concentration and 1:3 dilutions, 10-point dose response] and appropriate amounts (270 nL) of test compounds were dispensed in a 384-well intermediate plate using an Echo 550 liquid handler. 30 μL/well of RPMI medium 1640-GlutaMAX™—I was added to the intermediate plate and the contents of the intermediate plate (10 μL/well) were then transferred to the 384-well collagen coated cell culture plate, which was incubated at 37° C., 5% CO2 for 2 hours. After removal of medium from the collagen coated cell culture plate, cells were lysed in lysis buffer from Alpha SureFire® Ultra™ Multiplex p-ERK and total ERK assay kit (PerkinElmer MPSU-PTERK) containing Halt™ Protease and Phosphatase inhibitor cocktail (ThermoFisher Scientific 78446) at room temperature with constant shaking at 300 rpm for 30 minutes. The cell lysates were then transferred to an OptiPlate-384 plate (PerkinElmer 6005620), and the phosphorylation of ERK (p-ERK) and total ERK levels were detected by Alpha SureFire® Ultra™ Multiplex p-EEK kit and total ERK assay kit (PerkinElmer MPSU-PTERK) following the manufacturer's protocol. Assay plates were read on a En Vision Multimode Plate Reader (PerkinElmer), and the ratio of p-ERK vs. total ERK in each well was used as the final readout. Dose response curves were analyzed using a 4-parameter logistic model to calculate IC50 values using Spotfire software.

The next test addresses KRAS-WT (Homo sapiens, UniProt P01116). The test can be described thus: SOS-catalyzed nucleotide exchange assay (Procedure A, TR-FRET), KRAS-WT. The conditions noted are these: nucleotide exchange, read-out: KRAS WT GNE IC50. It is filed as biochemical.
Excerpt: as §1, §2, §3, §4, §5

KRAS-G12D, sequence (P01116 with tags, fused parts or gaps isoform P01116-2 G12D): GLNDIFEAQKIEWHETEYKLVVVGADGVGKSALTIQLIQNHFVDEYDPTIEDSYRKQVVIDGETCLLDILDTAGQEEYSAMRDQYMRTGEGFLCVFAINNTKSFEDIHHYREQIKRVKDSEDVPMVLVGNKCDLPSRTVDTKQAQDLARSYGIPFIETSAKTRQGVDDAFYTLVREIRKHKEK
KRAS-G12V, sequence (P01116 with tags, fused parts or gaps isoform P01116-2 G12V): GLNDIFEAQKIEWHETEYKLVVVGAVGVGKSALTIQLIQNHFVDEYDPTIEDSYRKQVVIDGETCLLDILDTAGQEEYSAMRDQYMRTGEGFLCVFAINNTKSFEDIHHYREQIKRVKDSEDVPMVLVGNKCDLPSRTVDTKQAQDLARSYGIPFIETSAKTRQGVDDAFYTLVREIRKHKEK
KRAS-WT, sequence (P01116 with tags, fused parts or gaps isoform P01116-2): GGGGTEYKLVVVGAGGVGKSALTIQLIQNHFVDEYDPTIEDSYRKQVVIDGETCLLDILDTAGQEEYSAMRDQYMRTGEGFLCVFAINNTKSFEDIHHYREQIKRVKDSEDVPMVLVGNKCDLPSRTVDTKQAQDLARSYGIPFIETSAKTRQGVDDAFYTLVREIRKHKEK

In the case of `Cc1cc2[nH]ncc2c(-c2nc(-c3ccoc3)cc3c2sc2nc(OC[C@@]45CCCN4C[C@H](F)C5)nc(N4CCOC[C@@](C)(O)C4)c23)c1C(F)(F)F` [Ex-29, (6S)-4-(2-(((2R,7aS)-2-fluorotetrahydro-1H-pyrrolizin-7a(5H)-yl)methoxy)-6-(furan-3-yl)-8-(6-methyl-5-(trifluoromethyl)-1H-indazol-4-yl)pyrido[4′,3′:4,5]thieno[2,3-d]pyrimidin-4-yl)-6-methyl-1,4-oxazepan-6-ol], the IC50 on KRAS-G12D came to 251 nM; at KRAS-G12V, 143 nM; in the test with AsPC-1 cells (KRAS-G12D, 2 hours) it was 1530 nM; on KRAS-WT it was 852 nM.

For `C[C@@]1(O)COCCN(c2nc(OC[C@]3(CN4CCOC5(CC5)C4)CC3(F)F)nc3sc4c(-c5c(C6(F)CC6)c(Cl)cc6[nH]ncc56)nccc4c23)C1` [Ex-264, (6S)-4-(2-(((R)-1-((4-oxa-7-azaspiro[2.5]octan-7-yl)methyl)-2,2-difluorocyclopropyl)methoxy)-8-(6-chloro-5-(1-fluorocyclopropyl)-1H-indazol-4-yl)pyrido[4′,3′:4,5]thieno[2,3-d]pyrimidin-4-yl)-6-methyl-1,4-oxazepan-6-ol], the IC50 at KRAS-G12D was 63.9 nM; at KRAS-G12V, 215 nM; in the test on AsPC-1 cells (2 hours compound incubation), 618 nM; on KRAS-WT, 351 nM.

With `C[C@@H]1CN(C[C@@]2(COc3nc(N4CCOC[C@@](C)(O)C4)c4c(n3)sc3c(-c5c(C6(F)CC6)c(Cl)cc6[nH]ncc56)nccc34)CC2(F)F)C[C@H](C)O1` [Ex-246, (6S)-4-(8-(6-chloro-5-(1-fluorocyclopropyl)-1H-indazol-4-yl)-2-(((R)-1-(((2R,6S)-2,6-dimethylmorpholino)methyl)-2,2-difluorocyclopropyl)methoxy)pyrido[4′,3′:4,5]thieno[2,3-d]pyrimidin-4-yl)-6-methyl-1,4-oxazepan-6-ol], the half-maximal inhibitory concentration (IC50) on KRAS-G12D came to 96.8 nM; on KRAS-G12V, 275 nM; with AsPC-1 cells (2 hours compound incubation), 1170 nM; at KRAS-WT, 374 nM.

As to `C[C@@]1(O)COCCN(c2nc(OC[C@@]34CCCN3C[C@H](F)C4)nc3sc4c(-c5c(-c6ccco6)c(C(F)(F)F)cc6[nH]ncc56)nccc4c23)C1` [Ex-78], the IC50 on KRAS-G12D is 94.7 nM; at KRAS-G12V it was 84.8 nM; in the test on AsPC-1 cells (KRAS-G12D, 2 hours), 434 nM; on KRAS-WT, 194 nM.

Turning to `C[C@@]1(O)COCCN(c2nc(OC[C@]3(CN4CC(C#N)C4)CC3(F)F)nc3sc4c(-c5c(C6(F)CC6)c(Cl)cc6[nH]ncc56)nccc4c23)C1` [Ex-238, 1-(((IR)-1-(((8-(6-chloro-5-(1-fluorocyclopropyl)-1H-indazol-4-yl)-4-((S)-6-hydroxy-6-methyl-1,4-oxazepan-4-yl)pyrido[4′,3′:4,5]thieno[2,3-d]pyrimidin-2-yl)oxy)methyl)-2,2-difluorocyclopropyl)methyl]a-zetidine-3-carbonitrile], the IC50 on KRAS-G12D worked out at 112 nM; on KRAS-G12V, 400 nM; in the test on AsPC-1 cells (2 hours compound incubation) it was 4120 nM; at KRAS-WT, 446 nM.

For the compound `C[C@@]1(O)COCCN(c2nc(OC[C@]3(CN4CCC[C@H]4CF)CC3(F)F)nc3sc4c(-c5c(C6(F)CC6)c(Cl)cc6[nH]ncc56)nccc4c23)C1` [Ex-247, (6S)-4-(8-(6-chloro-5-(1-fluorocyclopropyl)-1H-indazol-4-yl)-2-(((R)-2,2-difluoro-1-(((S)-2-(fluoromethyl)pyrrolidin-1-yl)methyl)cyclopropyl)metho-xy)pyrido[4′,3′:4,5]thieno[2,3-d]pyrimidin-4-yl)-6-methyl-1,4-oxazepan-6-ol], the IC50 on KRAS-G12D amounted to 74.6 nM; at KRAS-G12V, 320 nM; in the test on AsPC-1 cells (2 hours compound incubation) it was 977 nM; at KRAS-WT it was 352 nM.

As to `C[C@@]1(O)COCCN(c2nc(OC[C@@]34CCCN3C[C@H](F)C4)nc3sc4c(-c5c6c(cc7[nH]ncc57)C5CC5C6)nccc4c23)C1` (stereo partly drawn) [Ex-91, (6S)-4-(2-(((2R,7aS)-2-fluorotetrahydro-1H-pyrrolizin-7a(5H)-yl)methoxy)-8-(5,5a,6,6a-tetrahydro-1H-cyclopropa[3,4]cyclopen-ta[1,2-f]indazol-4-yl)pyrido[4′,3′:4,5]thieno [2,3-d]pyrimidin-4-yl)-6-methyl-1,4-oxazepan-6-ol], the IC50 on KRAS-G12D amounted to 65 nM; on KRAS-G12V it was 103 nM; in the test with AsPC-1 cells (KRAS-G12D, 2 hours), 399 nM; on KRAS-WT, 129 nM.

Turning to `C[C@H]1CN(C[C@@]2(COc3nc(N4CCOC[C@@](C)(O)C4)c4c(n3)sc3c(-c5c(C6(F)CC6)c(Cl)cc6[nH]ncc56)nccc34)CC2(F)F)[C@@H](C)CO1` [Ex-241, (6S)-4-(8-(6-chloro-5-(1-fluorocyclopropyl)-1H-indazol-4-yl)-2-(((R)-1-(((2S,5S)-2,5-dimethylmorpholino)methyl)-2,2-difluorocyclopropyl)methoxy)pyrido[4′,3′:4,5]thieno[2,3-d]pyrimidin-4-yl)-6-methyl-1,4-oxazepan-6-ol], the IC50 was determined as 98.2 nM at KRAS-G12D, 308 nM at KRAS-G12V, 1410 nM in the test on AsPC-1 cells (2 hours compound incubation) and 1860 nM on KRAS-WT.

Broadly, the IC50 is the concentration that gives 50% inhibition.

Values taken from US20260176289A1, “SMALL MOLECULE INHIBITORS OF KRAS PROTEINS” (Merck Sharp & Dohme LLC, priority 2022, published 2026).
